Experimental data from ChEMBL document CHEMBL2176980, “Influence of chlorine or fluorine substitution on the estrogenic properties of 1-alkyl-2,3,5-tris(4-hydroxyphenyl)-1H-pyrroles” (J Med Chem, 2012).
Active and inactive are the calls of the source. The rule behind the calls is not given here.

Legend:
MCF7 [1] = experiment: Down regulation of ERalpha human MCF7 cells at 10 uM by Western blotting; format: functional, cell-based
[2] = target: T1, Estrogen receptor (Homo sapiens) (UniProt P03372); experiment: Antagonist activity at ERalpha in human MCF7/2a cells assessed as reduction in 1 nM estradiol-induced receptor activation by luciferase reporter gene assay relative to untreated control; format: functional, cell-based
T1 sequence (whole entry): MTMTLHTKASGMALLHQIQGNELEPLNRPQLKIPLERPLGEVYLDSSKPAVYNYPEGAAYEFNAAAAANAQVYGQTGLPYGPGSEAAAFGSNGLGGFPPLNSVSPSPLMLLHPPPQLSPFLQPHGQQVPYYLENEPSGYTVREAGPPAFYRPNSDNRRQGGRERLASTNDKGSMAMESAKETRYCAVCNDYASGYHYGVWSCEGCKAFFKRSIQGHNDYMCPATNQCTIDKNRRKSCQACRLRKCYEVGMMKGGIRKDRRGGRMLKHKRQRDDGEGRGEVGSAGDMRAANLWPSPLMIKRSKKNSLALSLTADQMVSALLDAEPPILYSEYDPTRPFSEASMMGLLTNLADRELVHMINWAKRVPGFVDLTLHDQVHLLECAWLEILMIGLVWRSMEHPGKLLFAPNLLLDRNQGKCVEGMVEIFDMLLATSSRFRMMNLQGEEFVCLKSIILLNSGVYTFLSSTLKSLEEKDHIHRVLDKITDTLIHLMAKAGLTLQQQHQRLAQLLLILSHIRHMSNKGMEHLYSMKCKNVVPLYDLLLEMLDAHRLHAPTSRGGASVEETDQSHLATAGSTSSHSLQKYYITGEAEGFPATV

Estrogen receptor [3] = target: T2, Estrogen receptor (Homo sapiens, UniProt P03372); experiment: Activation of human ERalpha expressed in human U2-OS cells by luciferase reporter gene assay relative to untreated control; format: cell-based, U2OS
T2 sequence (P03372 whole entry): T1 sequence (whole entry)

Estrogen receptor [4] = target: T2, Estrogen receptor; experiment: Activation of ERalpha in human MCF7/2a cells by luciferase reporter gene assay relative to untreated control; format: cell-based
MCF7 [5] = experiment: Cytotoxicity in hormone-dependent human MCF7 cells assessed as growth inhibition incubated for 4 day s by crystal violet assay; format: functional, cell-based; conditions: MCF7, 96 h
[6] = Toxicity in hormone-independent human MDA-MB-231 cells assessed as growth inhibition incubated for 4 day s by crystal violet assay; format: cell-based
[7] = target: T1, Estrogen receptor (Homo sapiens); experiment: Activation of ERalpha in human MCF7/2a cells pre-exposed to compound 1 to 3 hrs before 0.1 uM 4-OHT addition by luciferase reporter gene assay relative to untreated control; format: cell-based
[8] = target: T1, Estrogen receptor (Homo sapiens); experiment: Activation of ERalpha in human MCF7/2a cells in presence of 0.1 uM 4-OHT by luciferase reporter gene assay relative to untreated control; format: cell-based
[9] = Chemical stability in pH 7.3 PBS buffer at 10 uM at 37 degC; format: physicochemical
MCF7 [10] = experiment: Stimulation of cell growth in human MCF7 cells incubated for 20 to 100 hrs by crystal violet assay; format: cell-based

| Structure (SMILES) | EC50 (Estrogen receptor [3]) | EC50 (Estrogen receptor [4]) | Activity [7] | Activity [8] | half-life at 10 µM [9] | Activity (MCF7 [1]) | Activity [2] | IC50 (MCF7 [5]) | IC50 at 4 days [6] | Activity (MCF7 [10]) |
| --- | --- | --- | --- | --- | --- | --- | --- | --- | --- | --- |
| CCCc1c(-c2ccc(O)cc2)nn(-c2ccc(O)cc2)c1-c1ccc(O)cc1 [PROPYLPYRAZOLETRIOL] | 0.0001 µM | 0.003 µM |  |  |  | Active |  | 27.2 µM |  |  |
| Cn1c(-c2ccc(O)cc2)cc(-c2ccc(O)cc2)c1-c1ccc(O)cc1Cl | 0.016 µM | 0.6 µM |  |  |  | Active | inactive | 19.1 µM |  |  |
| CCCn1c(-c2ccc(O)cc2F)cc(-c2ccc(O)cc2F)c1-c1ccc(O)cc1F | 0.0002 µM | 0.023 µM |  |  | 44 days | Active | inactive | 5.6 µM | 21.9 µM | Non-toxic |
| Cn1c(-c2ccc(O)cc2)cc(-c2ccc(O)cc2)c1-c1ccc(O)cc1F | 0.06 µM |  |  |  |  | inactive | inactive | 24.7 µM |  |  |
| Cn1c(-c2ccc(O)cc2F)cc(-c2ccc(O)cc2)c1-c1ccc(O)cc1 | 0.024 µM |  |  |  |  | inactive | inactive | 25.5 µM |  |  |
| Cn1c(-c2ccc(O)cc2F)cc(-c2ccc(O)cc2)c1-c1ccc(O)cc1F | 0.015 µM | 0.29 µM |  |  |  | Active | inactive | 8.5 µM |  | Non-toxic |
| Cn1c(-c2ccc(O)cc2Cl)cc(-c2ccc(O)cc2)c1-c1ccc(O)cc1 | 0.1 µM |  |  |  |  | inactive | inactive | 23.8 µM |  |  |

Now from value to compound, other results behind:

| EC50 (Estrogen receptor [3]) | EC50 (Estrogen receptor [4]) | Activity [7] | Activity [8] | half-life at 10 µM [9] | Structure (SMILES) | Activity (MCF7 [1]) | Activity [2] | IC50 (MCF7 [5]) | IC50 at 4 days [6] | Activity (MCF7 [10]) |
| --- | --- | --- | --- | --- | --- | --- | --- | --- | --- | --- |
| 0.00031 µM | 0.063 µM |  |  |  | CCCn1c(-c2ccc(O)cc2)cc(-c2ccc(O)cc2)c1-c1ccc(O)cc1Cl | Active | inactive |  |  |  |
| 0.00027 µM | 0.03 µM | Active | inactive |  | CCCn1c(-c2ccc(O)cc2F)cc(-c2ccc(O)cc2)c1-c1ccc(O)cc1F | Active | inactive |  | 20.9 µM |  |
| 0.047 µM |  |  |  | 61.4 days | CCCn1c(-c2ccc(O)cc2Cl)cc(-c2ccc(O)cc2)c1-c1ccc(O)cc1 | Active | inactive |  |  |  |
| 0.00067 µM | 0.24 µM |  |  |  | CCCn1c(-c2ccc(O)cc2F)cc(-c2ccc(O)cc2)c1-c1ccc(O)cc1 | Active | inactive |  |  |  |
| 0.0004 µM | 0.05 µM | Active | inactive | 10.7 days | CCCn1c(-c2ccc(O)cc2)cc(-c2ccc(O)cc2)c1-c1ccc(O)cc1 |  |  |  |  |  |
| 0.00012 µM | 0.07 µM |  |  | 31 days | CCCn1c(-c2ccc(O)cc2)cc(-c2ccc(O)cc2)c1-c1ccc(O)cc1F | Active | inactive |  |  |  |
| 0.0016 µM | 0.07 µM | Active | inactive | 7.04 days | CCCc1c(-c2ccc(O)cc2)cn(-c2ccc(O)cc2)c1-c1ccc(O)cc1 |  |  |  |  |  |
| 0.00084 µM | 0.026 µM |  |  |  | CCCn1c(-c2ccc(O)cc2)cc(-c2ccc(O)cc2F)c1-c1ccc(O)cc1 | Active | inactive |  |  |  |
